Source: article PMC12892976, “Alkylation-based optimization of antifungal FPPS inhibitors yields a potent, broad-spectrum lipophilic zoledronate derivative” (mBio, 2025)
In brackets after ≈: the same amount, converted by molar mass. Read-outs that look alike come from different tables or passages of the source.

What was measured:
[1] = test system: Candida albicans; assay: checkerboard drug interaction (FICI, MICc);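 on all read-outs here: antifungal plus FPPS inhibitor combinations on Candida albicans tested by a simplified diagonal checkerboard screen, with FICI calculated under the Loewe additivity model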; assay type: cell-based; details: C. albicans; for INH FD (MIC-MICc fold decrease): fold decrease of inhibitor MIC
Method: (§1) Drug interactions between antifungals and FPPS inhibitors were investigated using a simplified checkerboard diagonal screening method ([45]). […] FICIs were determined according to the Loewe additivity model ([17]).

[2] = test system: eight fungal species; assay: MIC/MFC summary across the eight fungal species of Table 1; assay type: cell-based
Method: The antifungal activity of these compounds was evaluated according to CLSI guidelines ([16]).

[3] = test system: Aspergillus flavus; assay: MIC/MFC broth microdilution (CLSI); details: ATCC204304
Method: (§2) Antifungal susceptibility was determined by broth microdilution according to the CLSI guidelines described in M27-Ed4 ([16]). […] MFC was determined by back-plating drug-treated cultures from MIC broths onto SDA plates. The MFC was defined as the lowest concentration from which no colonies could be cultured.

[4] = test system: HEK-293T cells; assay: MTT reduction cytotoxicity assay; assay type: cell-based; details: Homo sapiens, HEK-293T, 72 h, HEK-293T, MTT, 72 h; read-out: HEK IC50
[5] = test system: Trichophyton rubrum; assay: checkerboard drug interaction (FICI, MICc);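 further: simplified diagonal checkerboard screen pairing azole antifungals with FPPS inhibitors, FICI calculated under the Loewe additivity model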; assay type: cell-based; details: T. rubrum
Method: as §1

[6] = test system: Candida glabrata; assay: MIC/MFC broth microdilution (CLSI); details: Nakaseomyces glabratus, CBS138;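 further: broth microdilution following CLSI M27-Ed4, MFC taken as the lowest drug level yielding no growth once MIC wells were subcultured on SDA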
Method: as §2

[7] = test system: Candida glabrata; assay: checkerboard drug interaction (FICI, MICc);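 on all read-outs here: simplified diagonal checkerboard screen pairing antifungals with FPPS inhibitors, FICI calculated under the Loewe additivity model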; assay type: cell-based; details: C. glabrata; for INH FD (MIC-MICc fold decrease): fold decrease of inhibitor MIC
Method: as §1

[8] = test system: Cryptococcus neoformans; assay: checkerboard drug interaction (FICI, MICc);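 on all read-outs here: antifungal plus FPPS inhibitor pairs tested against Cryptococcus neoformans by simplified diagonal checkerboard screening, FICI computed under the Loewe additivity model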; assay type: cell-based; details: C. neoformans; for INH FD (MIC-MICc fold decrease): fold decrease of inhibitor MIC
Method: as §1

[9] = test system: Aspergillus fumigatus; assay: checkerboard drug interaction (FICI, MICc); assay type: cell-based;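 further: simplified diagonal checkerboard screen pairing antifungals with FPPS inhibitors against Aspergillus fumigatus, with FICI calculated under the Loewe additivity model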
Method: as §1

[10] = test system: Cryptococcus deuterogattii; assay: checkerboard drug interaction (FICI, MICc);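 on all read-outs here: simplified diagonal checkerboard screen pairing antifungal drugs with FPPS inhibitors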; assay type: cell-based; details: C. deuterogattii; for INH FD (MIC-MICc fold decrease): fold decrease of inhibitor MIC
Method: as §1

[11] = test system: Cryptococcus neoformans; assay: MIC/MFC broth microdilution (CLSI); details: Cryptococcus neoformans;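 further: susceptibility testing followed the CLSI M27-Ed4 broth microdilution document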
Method: as §2

[12] = test system: Aspergillus fumigatus; assay: MIC/MFC broth microdilution (CLSI); details: ATCC204305
Method: as §2

[13] = test system: Trichophyton rubrum; assay: MIC/MFC broth microdilution (CLSI); details: Trichophyton rubrum
Method: as §2

[14] = test system: Saccharomyces cerevisiae; assay: checkerboard drug interaction (FICI, MICc); assay type: cell-based; set-up: INH MICc / INH MICc (ITR:INH) / INH MICc (KET:INH) / INH MICc (FLC:INH): unit not given beside the values;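 further: simplified diagonal checkerboard screen pairing antifungals with FPPS inhibitors, FICI calculated under the Loewe additivity model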
[15] = test system: Cryptococcus deuterogattii; assay: MIC/MFC broth microdilution (CLSI); details: Cryptococcus deuterogattii;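 further: broth microdilution per CLSI M27-Ed4. MFC is the lowest concentration yielding no colonies when MIC broths are subcultured onto SDA plates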
Method: as §2

[16] = test system: Aspergillus flavus; assay: checkerboard drug interaction (FICI, MICc);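 further: simplified diagonal checkerboard screen pairing azole antifungals with FPPS inhibitors, FICI calculated under the Loewe additivity model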; assay type: cell-based; set-up: INH MICc (KET:INH) / INH MICc (FLC:INH): unit not given beside the values; details: A. flavus
[17] = test system: eight fungal species; assay: checkerboard interaction with azoles, summary across the eight species; assay type: cell-based; details: geometric mean MIC in combination with azoles
Text: Synergy between lipophilic FPPS inhibitors and azole antifungals was investigated by determining the fractional inhibitory concentration index (FICI) (Fig. 2; Table S1 Fig. S1) ([17]). […]. Derivatives PLA9 and 11, and PDA9, 11, and 12 antagonized azoles in C. albicans, C. neoformans, and C. deuterogattii, yet were largely synergistic in C. glabrata and S. cerevisiae. […].

[18] = test system: Saccharomyces cerevisiae; assay: MIC/MFC broth microdilution (CLSI); assay type: cell-based; details: Saccharomyces cerevisiae S288c
Method: as §2

[19] = test system: Candida albicans; assay: MIC/MFC broth microdilution (CLSI); assay type: cell-based; details: Candida albicans SC5314
Method: as §2

[20] = FLC:INH combination, MIC of the inhibitor in combination with FLC
[21] = FLC:INH combination, fold decrease of FLC MIC
[22] = ITR:INH combination, MIC of the inhibitor in combination with ITR
[23] = ITR:INH combination, fold decrease of ITR MIC
[24] = KET:INH combination, MIC of the inhibitor in combination with KET
[25] = KET:INH combination, fold decrease of KET MIC
[26] = Fractional Inhibitory Concentration Index, fluconazole + inhibitor
[27] = Fractional Inhibitory Concentration Index, itraconazole + inhibitor
[28] = Fractional Inhibitory Concentration Index, ketoconazole + inhibitor
[29] = MIC of the inhibitor in combination with fluconazole
[30] = MIC of the inhibitor in combination with itraconazole
[31] = MIC of the inhibitor in combination with ketoconazole
[32] = MIC-MICc fold decrease of fluconazole, negative = increase
[33] = MIC-MICc fold decrease of itraconazole, negative = increase
[34] = MIC-MICc fold decrease of ketoconazole, negative = increase
[35] = MIC-MICc fold decrease of the inhibitor, with fluconazole
[36] = MIC-MICc fold decrease of the inhibitor, with itraconazole
[37] = MIC-MICc fold decrease of the inhibitor, with ketoconazole

## CCCCCCCCCCN1CCC[C@H]1C(=O)N[C@H](CC(=O)OC)C(=O)OC [dmPDA10]
[1]; FLC:INH combination
  FICI: 1.5
  INH FD (MIC-MICc fold decrease): 2
[1]; [20]
  INH MICc: 8
[1]; [21]
  FLC FD (MIC-MICc fold decrease): 1
[1]; ITR:INH combination
  FICI: 0.75
  INH FD (MIC-MICc fold decrease): 4
[1]; [22]
  INH MICc: 4
[1]; [23]
  ITR FD (MIC-MICc fold decrease): 2
[1]; KET:INH combination
  FICI: 0.75
  INH FD (MIC-MICc fold decrease): 4
[1]; [24]
  INH MICc: 4
[1]; [25]
  KET FD (MIC-MICc fold decrease): 2
[2]; across eight species
  Geometric mean MFC: 45.3 mg/L
[2]; across eight species, read-out: Geometric mean MFC
  MFC: 45.3 mg/L (≈ 114 µM)
[2]; geometric mean across eight species, read-out: GM fungal MIC
  MIC: 20.7 mg/L (≈ 51.9 µM)
[2]; read-out: Geometric mean MIC
  MIC: 20.7 mg/L (≈ 51.9 µM)
[3]
  MFC: 64 mg/L (≈ 161 µM)
  MIC: 64 mg/L (≈ 161 µM)
[4]
  IC50: 1.84 mg/L (≈ 4.62 µM)
[5]; [26]
  FICI (FLC:INH): ≥4
[5]; [27]
  FICI (ITR:INH): ≥4
[5]; [28]
  FICI (KET:INH): ≥4
[5]; [29]
  INH MICc (FLC:INH): 64
[5]; [30]
  INH MICc (ITR:INH): 64
[5]; [31]
  INH MICc (KET:INH): 64
[5]; [32]
  FLC FD (FLC:INH): 2
[5]; [33]
  ITR FD (ITR:INH): 4
[5]; [34]
  KET FD (KET:INH): 2
[5]; [35]
  INH FD (FLC:INH): < -4
[5]; [36]
  INH FD (ITR:INH): < -4
[5]; [37]
  INH FD (KET:INH): < -4
[6]
  MFC: 32 mg/L (≈ 80.3 µM)
  MIC: 32 mg/L (≈ 80.3 µM)
[7]; FLC:INH combination
  FICI: ≥4
  INH FD (MIC-MICc fold decrease): 1
[7]; [20]
  INH MICc: 16
[7]; [21]
  FLC FD (MIC-MICc fold decrease): 1
[7]; ITR:INH combination
  FICI: 3
  INH FD (MIC-MICc fold decrease): 2
[7]; [22]
  INH MICc: 8
[7]; [23]
  ITR FD (MIC-MICc fold decrease): 1
[7]; KET:INH combination
  FICI: ≥4
  INH FD (MIC-MICc fold decrease): 1
[7]; [24]
  INH MICc: 16
[7]; [25]
  KET FD (MIC-MICc fold decrease): -2
[8]; FLC:INH combination
  FICI: 0.75
  INH FD (MIC-MICc fold decrease): 2
[8]; [20]
  INH MICc: 8
[8]; [21]
  FLC FD (MIC-MICc fold decrease): 4
[8]; ITR:INH combination
  FICI: 0.75
  INH FD (MIC-MICc fold decrease): 2
[8]; [22]
  INH MICc: 8
[8]; [23]
  ITR FD (MIC-MICc fold decrease): 4
[8]; KET:INH combination
  FICI: 0.75
  INH FD (MIC-MICc fold decrease): 2
[8]; [24]
  INH MICc: 8
[8]; [25]
  KET FD (MIC-MICc fold decrease): 4
[9]; [26]
  FICI (FLC:INH): 2.13
[9]; [27]
  FICI (ITR:INH): 0.63
[9]; [28]
  FICI (KET:INH): 2.25
[9]; [29]
  INH MICc (FLC:INH): 32
[9]; [30]
  INH MICc (ITR:INH): 2
[9]; [31]
  INH MICc (KET:INH): 32
[9]; [32]
  FLC FD (FLC:INH): 8
[9]; [33]
  ITR FD (ITR:INH): 2
[9]; [34]
  KET FD (KET:INH): 4
[9]; [35]
  INH FD (FLC:INH): -2
[9]; [36]
  INH FD (ITR:INH): 8
[9]; [37]
  INH FD (KET:INH): -2
[10]; FLC:INH combination
  FICI: 1.25
  INH FD (MIC-MICc fold decrease): 1
[10]; [20]
  INH MICc: 16
[10]; [21]
  FLC FD (MIC-MICc fold decrease): 4
[10]; ITR:INH combination
  FICI: 1.5
  INH FD (MIC-MICc fold decrease): 1
[10]; [22]
  INH MICc: 16
[10]; [23]
  ITR FD (MIC-MICc fold decrease): 2
[10]; KET:INH combination
  FICI: 0.53
  INH FD (MIC-MICc fold decrease): 2
[10]; [24]
  INH MICc: 8
[10]; [25]
  KET FD (MIC-MICc fold decrease): 32
[11]
  MFC: 32 mg/L (≈ 80.3 µM)
  MIC: 16 mg/L (≈ 40.1 µM)
[12]
  MFC: 32 mg/L (≈ 80.3 µM)
  MIC: 32 mg/L (≈ 80.3 µM)
[13]
  MFC: > 128 mg/L
  MIC: 8 mg/L (≈ 20.1 µM)
[14]; [26]
  FICI (FLC:INH): ≥4
[14]; [27]
  FICI (ITR:INH): 3
[14]; [28]
  FICI (KET:INH): 1.13
[14]; [29]
  INH MICc (FLC:INH): 32
[14]; [30]
  INH MICc (ITR:INH): 16
[14]; [31]
  INH MICc (KET:INH): 16
[14]; [32]
  FLC FD (FLC:INH): -2
[14]; [33]
  ITR FD (ITR:INH): -2
[14]; [34]
  KET FD (KET:INH): 8
[14]; [35]
  INH FD (FLC:INH): -2
[14]; [36]
  INH FD (ITR:INH): 1
[14]; [37]
  INH FD (KET:INH): 1
[15]
  MFC: 64 mg/L (≈ 161 µM)
  MIC: 16 mg/L (≈ 40.1 µM)
[16]; [26]
  FICI (FLC:INH): 0.75
[16]; [27]
  FICI (ITR:INH): 1.5
[16]; [28]
  FICI (KET:INH): 0.63
[16]; [29]
  INH MICc (FLC:INH): 32
[16]; [30]
  INH MICc (ITR:INH): 32
[16]; [31]
  INH MICc (KET:INH): 8
[16]; [32]
  FLC FD (FLC:INH): 4
[16]; [33]
  ITR FD (ITR:INH): 1
[16]; [34]
  KET FD (KET:INH): 2
[16]; [35]
  INH FD (FLC:INH): 2
[16]; [36]
  INH FD (ITR:INH): 2
[16]; [37]
  INH FD (KET:INH): 8
[17]
  GM fungal MICc: 14.7
[18]
  MFC: 16 mg/L (≈ 40.1 µM)
  MIC: 16 mg/L (≈ 40.1 µM)
[19]
  MFC: 32 mg/L (≈ 80.3 µM)
  MIC: 16 mg/L (≈ 40.1 µM)
